The test system of one series is AtAIRP2 gene promoter. Briefly: Histochemical GUS assay of AtAIRP2 promoter activity. It is filed as in vivo, Arabidopsis thaliana. Particulars: 100 μM ABA, 3 hours. The protocol:
[…] After removal of the acetone, the plant was washed 3 times with rincing solution containing 50 mM NaPO4, 1 mM K3Fe(CN)6, and 1 mM K4Fe(CN)6, and immersed in 2 mM X-Gluc (5-bromo-4-chloro-3-indolyl glucuronide, sigma) and vacuumed for 1 min. After staining at 37° C. in the dark until the color was changed, the plant was incubated in 90% ethanol to remove chlorophyll.
(§1) The AtAIRP2 gene expressions in various abiotic stresses were analyzed by RT-PCR. After treatments of low-temperature (12 hours and 24 hours), drought (1 hour and 2 hours), salt (1.5 hour and 3 hours) and ABA hormone (1.5 hour and 3 hours) stresses, RNA from each of samples was extracted to analyze the gene expression patterns. As a result, it was determined that the gene expression levels of stress treatments were increased than those of non-stress treatments, thereby the AtAIRP2 gene expression is induced by salt, low-temperature, drought and ABA hormone stresses (FIG. 1). In addition, the AtAIRP2 protein expressions in various abiotic stresses were analyzed by histochemical GUS assay. After treatments of ABA hormone (3 hours) and drought (2 hours) stresses, the degree of the staining was analyzed. As a result, it was determined that the degrees of the staining of stress treatments were increased than those of before the stress treatments (FIG. 2).

The test system of another series is AtAIRP2 gene. The series can be described thus: AtAIRP2 gene expression by RT-PCR after stress treatment. It is filed as in vivo, Arabidopsis thaliana. Particulars: 100 μM ABA, 1.5 hour and 3 hours, 2-week-old wild type seedlings. The method, then:
In order to determine expressions of the AtAIRP2 gene to drought stress, the wild type Arabidopsis thaliana seedlings which were grown on medium for 2 weeks were exposed in the air, and sampled after 1 hour and 2 hours. In order to determine expressions of the AtAIRP2 gene to salt stress, the wild type Arabidopsis thaliana seedlings which were grown on medium for 2 weeks were treated with 300 mM sodium chloride, and sampled after 1.5 hour and 3 hours. In order to determine expressions of the AtAIRP2 gene to low-temperature stress, the wild type Arabidopsis thaliana seedlings which were grown on medium for 2 weeks were incubated at 4° C. for 12 hours and 24 hours, and sampled. […]
as §1, with “After treatments of low-temperature (12 hours and 24 hours), drought (1 hour and 2 hours), salt (1.5 hour and 3 hours) and ABA hormone (1.5 hour and 3 hours) stresses, RNA from each of samples was extracted to analyze the gene expression patterns.” left out

The target of a further series is T1, E3 ubiquitin ligase (Arabidopsis thaliana, UniProt Q9M022).
T1 construct: the ORF of the AtAIRP2 gene was subcloned into pMAL-X vector in-frame with MBP; made in house; host or cells: Escherichia coli BL21-CodonPlus (DE3) RIL
T1 sequence (Q9M022 1-242): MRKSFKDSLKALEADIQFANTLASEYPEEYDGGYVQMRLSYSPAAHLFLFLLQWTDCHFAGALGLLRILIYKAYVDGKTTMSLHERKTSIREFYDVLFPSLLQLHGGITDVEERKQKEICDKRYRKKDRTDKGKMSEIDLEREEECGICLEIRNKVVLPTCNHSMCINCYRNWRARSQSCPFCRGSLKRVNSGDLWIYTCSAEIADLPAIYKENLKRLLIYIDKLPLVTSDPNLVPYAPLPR
Briefly: Self-ubiquitination assay (Western blot, anti-MBP and anti-ubiquitin). It is filed as biochemical. Particulars: with UBA1, UBC8, ubiquitin, 30° C., 1 hour. The method, then: For the enzymatic activity analysis of the AtAIRP2 protein, the ORF of the AtAIRP2 gene was subcloned into pMAL-X vector in-frame with MBP (maltose-binding protein). 40 mM Tris-HCI, pH 7.5, 5 mM MgCl2, 2 mM ATP, 2 mM dithiothreitol (DTT), 300 ng/μL ubiquitin (Sigma), 25 μM MG132 (A.G. Scientific Inc.), 500 ng UBA1 (ABRC, www.arabidopsis.org), 500 ng UBC8 (ABRC, www.arabidopsis.org) and 500 ng MBP-AtAIRP2 were added to each of tubes and incubated at 30° C. After addition of sample buffer solution, the resultant was heated at 100° C. for 5min, and performed by Western blot using anti-MBP (New England Bio Labs) and anti-ubiquitin (Santa Cruz) antibodies.
Maltose-binding protein (MBP) was bound to the AtAIRP2 proteins. Then, the MBP-AtAIRP2 was incubated with UBA1, UBC8, ubiquitin and AtAIRP2 at 30° C. for 1 hour to perform Self-Ubiquitination, and performed by Western blot using MBP- and ubiquitin-specific antibodies to analyze changes in the protein levels. As a result, it was determined that the molecular weight of the AtAIRP2 protein was increased through Western blot using anti-MBP antibody, and the increase was induced due to ubiquitin (FIG. 3).
Background: A western blot detects proteins with antibodies after separation by electrophoresis.

As for `CC1=CC(=O)CC(C)(C)C1(O)/C=C/C(C)=C\C(=O)O` (stereo not drawn) [ABA], the “GUS signals (AtAIRP2 promoter activity)” value in the series with AtAIRP2 gene promoter was “markedly induced”. The AtAIRP2 gene expression result in the series with AtAIRP2 gene is recorded as “induced”.

B1: AtAIRP2 protein: RING protein encoded by At5g01520 (SEQ ID NO:2), tested as maltose-binding protein fusion (protein)
chain: MRKSFKDSLKALEADIQFANTLASEYPEEYDGGYVQMRLSYSPAAHLFLFLLQWTDCHFAGALGLLRILIYKAYVDGKTTMSLHERKTSIREFYDVLFPSLLQLHGGITDVEERKQKEICDKRYRKKDRTDKGKMSEIDLEREEECGICLEIRNKVVLPTCNHSMCINCYRNWRARSQSCPFCRGSLKRVNSGDLWIYTCSAEIADLPAIYKENLKRLLIYIDKLPLVTSDPNLVPYAPLPR
modifications: left off: large carriers
For the molecule B1, the “enzymatic activity of E3 ubiquitin ligase” value with E3 ubiquitin ligase was “possessed ability for enzymatic activity of E3 ubiquitin ligase”.

Values taken from patent publication US9322032B2, “Arabidopsis ring E3 ubiquitin ligase for promotion of plant germination” (INDUSTRY-ACADEMIC COOPERATION FOUNDATION, YONSEI UNIVERSITY, priority 2011, dated 2016).
